This is an account of results in patent US10654815B2, “Urea compound and preparation method and application thereof” (SHENZHEN CHIPSCREEN BIOSCIENCES CO., LTD., priority 2016, dated 2020).

The test system of experiment [1] is T cell leukemia cell line (Jurkat cell). The experiment can be described thus: Cytotoxic activity, MTS assay in T cell line. Format: cell-based. The following applies: Homo sapiens, Jurkat cells, compound 2 μM, 72 h, relative to solvent control (DMSO). The source says:
In order to rule out the biological function changes of T cell caused by cytotoxic effects of the compounds themselves, MTS assay was used as a routine cytotoxicity detection method. The basic principle was that the dehydrogenase in the living cell mitochondria was capable of metabolizing and reducing the new type yellow […] compound MTS to formazan. The amount of formazan product measured at 490 nm absorbance (OD) was directly proportional to the number of viable cells in the culture, and thus whether the test compound itself had the ability of inhibiting cell growth or killing cells can be judged basing on the OD value.
In this experiment, the T cell leukemia cell line (Jurkat cell) was evaluated for its cell growth activity according to the MTS assay.
The MTS was carried out in a 96-well plate according to a routine experimental procedure.
Cell lines were inoculated into a 96-well plate at an appropriate concentration (approximately 20,000 cells/well), test compounds (final concentration 2 μM) were added, and at the same time solvent control (DMSO) and negative control wells were set, and the well was set in triplicate. The cells were further cultured for 72 h followed by detection.
After the culture, 20 μL of the a pre-prepared mixture of MTS and PMS (mixed in a ratio of 20:1) was added directly to the culture well, and incubated in a 37° C. incubator for 2 h, and then detection was conducted using a microplate reader (490 nm).
The background value of the negative control was subtracted, and the relative cell activity (%) of the test compound on cell growth=(OD value of the test well/OD value of the solvent control well)×100%.
Background: Formazan colour is commonly taken as a measure of viable cells.

The target in a further experiment is T1, PD-1/PD-L1 binding (UniProt Q9NZQ7).
T1 construct: fused on or other part: human IgG Fc (hFc tag) fused to PD-L1
The experiment in a line: In-vitro PD-1/PD-L1 binding inhibition (HTRF). Details: species or system human. The following applies: His-PD-1 100 nM, PD-L1-Fc 2 nM final, read-out: IC50 on inhibiting PD-1/PD-L1 binding in-vitro. The source says: Main Principle of the Experiment (HTRF)
Homogeneous Time-Resolved Fluorescence (HTRF): The PD-1 protein carried an His tag and the Fc fusion protein of its ligand PD-L1 carried an hFc tag. An anti-hFc antibody labeled with a chelating marker of Eu element and an anti-His antibody labeled with XL66 were respectively combined with two corresponding tags. After laser excitation (320 nm), energy was transferred from the donor Eu to the acceptor XL665, so that the XL665 emitted light (665 nm). […] The basic detection principle was as follows (see FIG. 3):
The His-tagged human recombinant PD-1 protein (Cat#: 80448-R08H-100) and human recombinant PD-L1-Fc fusion protein (Cat#: 90251-CO2H-100) were purchased from Sino Biological Inc., and the anti-hFc-Eu3^+ and anti-His-XL665 antibody were purchased from Cisbio. Other related reagents such as dilution buffer, detection buffer were all purchased from Cisbio. The fluorescence detection instrument Tecan (Spark 10M) was purchased from Tecan, Switzerland.
The experimental process was carried out in accordance with the procedure required by the instruction manual for the test reagent […]. The process was as follows:
(1) Preparation of the experiment: The test compound was diluted to a different concentration gradient with a dilution buffer (the maximum final concentration was 10 μM in 20 μL final reaction system), the His-PD-1 protein was diluted to 800 nM (the final concentration was 100 nM in 20 μL final reaction system), and the PD-L1-Fc fusion protein was diluted to 16 nM (the final concentration was 2 nM). The anti-His-XL665 antibody and the anti-hFc-Eu^3+ antibody were diluted 20-fold and 100-fold, respectively, with the test diluent according to the reagent requirements.
(2) 5 μL of the test compound, 2.5 μL of PD-L1 protein and 2.5 μL of PD-1 protein solution were evenly mixed, and then reacted at room temperature for 15 min. Subsequently, 5 μL of anti-His-XL665 antibody and 5 μL of anti-hFc-Eu^3+ antibody were added to the system, and the incubation was continued for 3 hours followed by detection.
(3) At the same time of detection of the reaction, control groups were set, including a 0-inhibited positive control to which no test compound was added, and a negative control to which no PD-1 protein was added. All tests were run in duplicate.
(4) The fluorescence signal of each well was detected by a fluorescence detector Tecan (Spark 10M) with an excitation wavelength of 320 nm and detected emission wavelengths of 620 nm and 665 nm, respectively. The intensity of PD-1/PD-L1 binding to each other referred to the fluorescence signal ratio Em665/Em620.
(5) Formula for calculating the binding inhibition rate of test compounds: inhibition rate (%)=[1−(ratio of fluorescence signals of detection holes−negative control)/(ratio of fluorescence signals of 0-inhibited positive control−negative control)×100%. After calculating the binding inhibition rate of the test compounds with different concentration gradients, the 50% inhibitory concentration (IC50) was further calculated.
In general terms: TR-FRET usually uses a lanthanide donor and a delayed reading to cut background.

Experiment [2] relates to PD-1/PD-L1 interaction in human peripheral mononuclear cells (PBMC). The experiment in a line: PD-1 signal inhibition at cellular level: IL-2 secretion of SEB-stimulated PBMC (ELISA). It is filed as cell-based. The following applies: SEB 200 ng/mL-stimulated volunteer PBMC, compound 2 μM, 96 h; compared to anti-human PD-1 antibody (5 μg/mL).

Molecules are shown by their SMILES.

With `Cc1cc(CNCCOCCNC(=O)NCCN(C)C)c(OCc2cncc(C#N)c2)cc1OCc1cccc(-c2ccc3c(c2)OCCO3)c1C#N` [Compound I-10], in experiment [1], the activity at 2 µM stood at 97.1%. Further, the IC50 at PD-1/PD-L1 binding came to 73.3 nM.

On to `Cc1c(COc2ccc(CNCCNC(=O)N[C@@H](COC(C)(C)C)C(=O)OC(C)(C)C)c(OCc3cccc(C#N)c3)c2)cccc1-c1ccccc1` [Compound I-3, 1-((2-(2-(3-cyanophenyl)methoxy-4-(2-methyl-(1,1′-diphenyl)-3-yl-methoxy))benzylamino)-2-ethyl)-3-(2-tert-butyl-O-tert-butyl-L-serinate-2-yl)urea], for which the activity at 2 µM in experiment [1] was found to be 99.7%. The IC50 on PD-1/PD-L1 binding was found to be 3120 nM.

For `C=CC(=O)NCCNC(=O)NCCNCc1cc(C)c(OCc2cccc(-c3ccc4c(c3)OCCO4)c2C#N)cc1OCc1cncc(C#N)c1` [Compound I-14], the activity at 2 µM in experiment [1] was 102%. On PD-1/PD-L1 binding, the IC50 stood at 197 nM.

For the compound `Cc1c(COc2ccc(CNCCNC(=O)NCCN3CCOCC3)c(OCc3cccc(C#N)c3)c2)cccc1-c1ccccc1` [Compound I-1, 1-((2-(2-(3-cyanophenyl)methoxy-4-(2-methyl-(1,1′-diphenyl)-3-yl-methoxy))benzylamino)-2-ethyl)-3-(2-(N-morpholine)ethyl)urea], the activity at 2 µM in experiment [1] came out at 102%. In addition, the IC50 on PD-1/PD-L1 binding is 1710 nM.

As to `Cc1cc(CNCCNC(=O)NCCN2CCOCC2)c(OCc2cncc(C#N)c2)cc1OCc1cccc(-c2ccc3c(c2)OCCO3)c1C#N` [Compound I-8], in experiment [1], the activity at 2 µM came to 95.1%. Further, on PD-1/PD-L1 binding, the IC50 came to 61 nM.

`Cc1cc(CNCCNC(=O)NC(CO)(CO)CO)c(OCc2cncc(C#N)c2)cc1OCc1cccc(-c2ccc3c(c2)OCCO3)c1C#N` [Compound I-5]: the “Activity of promoting IL-2 (%)” value in experiment [2] was found to be 53%. In addition, in experiment [1], the activity at 2 µM came to 94.6%. In addition, the IC50 on PD-1/PD-L1 binding came out at 36.4 nM.

As to `C=C(NC(=O)NCCNCc1cc(C)c(OCc2cccc(-c3ccc4c(c3)OCCO4)c2C#N)cc1OCc1cncc(C#N)c1)C(=O)O` [Compound I-6], in experiment [2], the “Activity of promoting IL-2 (%)” value was determined as 56.3%. The activity at 2 µM in experiment [1] was found to be 92.1%. The IC50 at PD-1/PD-L1 binding was 70.2 nM.

As to `Cc1cc(CNCCNC(=O)NCCS(C)(=O)=O)c(OCc2cncc(C#N)c2)cc1OCc1cccc(-c2ccc3c(c2)OCCO3)c1C#N` [Compound I-12], the activity at 2 µM in experiment [1] amounted to 91.6%. Moreover, the IC50 on PD-1/PD-L1 binding came to 49.1 nM.

Turning to `Cc1cc(CNCCNC(=O)N[C@@H](CO)C(=O)O)c(OCc2cncc(C#N)c2)cc1OCc1cccc(-c2ccc3c(c2)OCCO3)c1C#N` [Compound I-13], the activity at 2 µM in experiment [1] was 91.1%. At PD-1/PD-L1 binding, the IC50 is 15.8 nM.

For `Cc1cc(CNCCNC(=O)NCCO)c(OCc2cncc(C#N)c2)cc1OCc1cccc(-c2ccc3c(c2)OCCO3)c1C#N` [Compound I-4], the activity at 2 µM in experiment [1] came to 93.2%. Moreover, the IC50 on PD-1/PD-L1 binding was determined as 37.5 nM.

`Cc1cc(CNCCOCCNC(=O)NCCO)c(OCc2cncc(C#N)c2)cc1OCc1cccc(-c2ccc3c(c2)OCCO3)c1C#N` [Compound I-7]: the “Activity of promoting IL-2 (%)” value in experiment [2] was 58.1%. Also, the activity at 2 µM in experiment [1] turned out to be 94.5%. In addition, the IC50 at PD-1/PD-L1 binding is 43.7 nM.

With `Cc1c(COc2ccc(CNCCNC(=O)NCCO)c(OCc3cccc(C#N)c3)c2)cccc1-c1ccccc1` [Compound I-2, 1-((2-(2-(3-cyanophenyl)methoxy-4-(2-methyl-(1,1′-diphenyl)-3-yl-methoxy))benzylamino)-2-ethyl)-3-(2-hydroxyethyl)urea], the activity at 2 µM in experiment [1] turned out to be 100%. Also, on PD-1/PD-L1 binding, the IC50 was 581 nM.

As for `Cc1cc(CNCCOCCNC(=O)NCCS(C)(=O)=O)c(OCc2cncc(C#N)c2)cc1OCc1cccc(-c2ccc3c(c2)OCCO3)c1C#N` [Compound I-9], the activity at 2 µM in experiment [1] amounted to 99.6%. For the same compound, the IC50 at PD-1/PD-L1 binding is 28.1 nM.

Turning to `Cc1cc(CNCCNC(=O)NCCN(C)C)c(OCc2cncc(C#N)c2)cc1OCc1cccc(-c2ccc3c(c2)OCCO3)c1C#N` [Compound I-11], the “Activity of promoting IL-2 (%)” value in experiment [2] is reported as 51.7%. For the same compound, the activity at 2 µM in experiment [1] worked out at 95.6%. In addition, the IC50 at PD-1/PD-L1 binding is 76.1 nM.
